Measurements: PubChem BioAssay (NCI)
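Five concentrations, 48 hours, 96-well plates. TGI: concentration producing complete growth inhibition.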

Experiments:
Experiment in all cases: NCI tumour cell line growth inhibition, 48 h
NCI-H460 lung = test system: NCI-H460 lung
DU-145 prostate = test system: DU-145 prostate
HCT-116 colon = test system: HCT-116 colon
SF-539 CNS = test system: SF-539 CNS
SNB-75 CNS = test system: SNB-75 CNS
SN12C renal = test system: SN12C renal
NCI-H522 lung = test system: NCI-H522 lung
KM12 colon = test system: KM12 colon
MALME-3M melanoma = test system: MALME-3M melanoma
T-47D breast = test system: T-47D breast
HCC-2998 colon = test system: HCC-2998 colon
UO-31 renal = test system: UO-31 renal
COLO 205 colon = test system: COLO 205 colon
NCI/ADR-RES ovarian = test system: NCI/ADR-RES ovarian
M14 melanoma = test system: M14 melanoma
SW-620 colon = test system: SW-620 colon
UACC-257 melanoma = test system: UACC-257 melanoma
SR leukemia = test system: SR leukemia
MDA-N = test system: MDA-N
SK-OV-3 ovarian = test system: SK-OV-3 ovarian
K-562 leukemia = test system: K-562 leukemia
SK-MEL-2 melanoma = test system: SK-MEL-2 melanoma
TK-10 renal = test system: TK-10 renal
OVCAR-5 ovarian = test system: OVCAR-5 ovarian
UACC-62 melanoma = test system: UACC-62 melanoma
SNB-19 CNS = test system: SNB-19 CNS
LOX IMVI melanoma = test system: LOX IMVI melanoma
EKVX NSCLC = test system: EKVX NSCLC
786-0 renal = test system: 786-0 renal
MOLT-4 leukemia = test system: MOLT-4 leukemia
OVCAR-8 ovarian = test system: OVCAR-8 ovarian
CAKI-1 renal = test system: CAKI-1 renal
MDA-MB-231 breast = test system: MDA-MB-231 breast
ACHN renal = test system: ACHN renal
SF-295 CNS = test system: SF-295 CNS
OVCAR-4 ovarian = test system: OVCAR-4 ovarian
PC-3 prostate = test system: PC-3 prostate
HT29 colon = test system: HT29 colon
BT-549 breast = test system: BT-549 breast
RXF 393 renal = test system: RXF 393 renal
HCT-15 colon = test system: HCT-15 colon
HL-60(TB) leukemia = test system: HL-60(TB) leukemia
MDA-MB-435 = test system: MDA-MB-435
CCRF-CEM leukemia = test system: CCRF-CEM leukemia
IGROV1 ovarian = test system: IGROV1 ovarian
A549 NSCLC = test system: A549 NSCLC
OVCAR-3 ovarian = test system: OVCAR-3 ovarian
HOP-62 NSCLC = test system: HOP-62 NSCLC
NCI-H23 lung = test system: NCI-H23 lung
HS 578T breast = test system: HS 578T breast
SK-MEL-5 melanoma = test system: SK-MEL-5 melanoma
MCF7 breast = test system: MCF7 breast
SF-268 CNS = test system: SF-268 CNS
RPMI-8226 leukemia = test system: RPMI-8226 leukemia
U251 CNS = test system: U251 CNS
A498 renal = test system: A498 renal
HOP-92 NSCLC = test system: HOP-92 NSCLC
SK-MEL-28 melanoma = test system: SK-MEL-28 melanoma
NCI-H226 lung = test system: NCI-H226 lung

Measured: TGI

Fc1ccc(Oc2nc3ccc(C(F)(F)F)cc3nc2-c2ccccc2)cc1
70.8 µM: CAKI-1 renal
70.9 µM: SR leukemia
99.5 µM: HS 578T breast
> 10 µM: SW-620 colon | K-562 leukemia | CCRF-CEM leukemia
35.5 µM: HCC-2998 colon
not listed: RPMI-8226 leukemia | U251 CNS | A498 renal | HOP-92 NSCLC | SK-MEL-28 melanoma | NCI-H226 lung
> 100 µM: all other assays above

CC1OC(OC2C(O)COC(OC3C(C)OC(OC4C(OC(=O)[C@]56CCC(C)(C)C[C@@H]5C5=CCC7[C@@]8(C)C[C@H](O)[C@H](OC9OC(CO)C(O)C(OC%10OC(CO)C(O)C(O)C%10O)C9O)[C@@](C)(CO)[C@@H]8CC[C@@]7(C)[C@]5(C)CC6)OCC(O)C4O)C(O)C3OC3OCC(O)(CO)C3O)C2O)C(O)C(O)C1O (stereo partly drawn)
16.6 µM: SNB-19 CNS
13.3 µM: BT-549 breast
25 µM: T-47D breast
15.8 µM: SK-MEL-5 melanoma
12.4 µM: CAKI-1 renal
20.3 µM: SF-268 CNS
20.7 µM: HOP-62 NSCLC
17.5 µM: SF-539 CNS
26.2 µM: KM12 colon
22.4 µM: HS 578T breast
20.8 µM: HCC-2998 colon
21.3 µM: SNB-75 CNS
13.9 µM: A549 NSCLC
16.2 µM: DU-145 prostate
18.6 µM: SF-295 CNS
30.1 µM: MOLT-4 leukemia
10.3 µM: UO-31 renal
15.7 µM: SW-620 colon
29.4 µM: MCF7 breast
17.4 µM: NCI-H522 lung | OVCAR-5 ovarian
14 µM: SK-MEL-28 melanoma
15.4 µM: 786-0 renal | CCRF-CEM leukemia
18.9 µM: OVCAR-8 ovarian
14.3 µM: NCI-H23 lung
16.7 µM: NCI/ADR-RES ovarian | MDA-MB-231 breast
13 µM: M14 melanoma
13.2 µM: MALME-3M melanoma | EKVX NSCLC
17.2 µM: RXF 393 renal
24.4 µM: MDA-MB-435
13.7 µM: PC-3 prostate
20.4 µM: A498 renal
18 µM: SK-OV-3 ovarian
23.4 µM: NCI-H226 lung
50 µM: RPMI-8226 leukemia | K-562 leukemia
36.2 µM: NCI-H460 lung
17.8 µM: LOX IMVI melanoma
19.1 µM: HCT-15 colon | OVCAR-3 ovarian
32.2 µM: HCT-116 colon
12 µM: SN12C renal
20.9 µM: UACC-257 melanoma
22.1 µM: TK-10 renal
19.2 µM: MDA-N
14.9 µM: COLO 205 colon
16 µM: SR leukemia
22.9 µM: UACC-62 melanoma
19.7 µM: HOP-92 NSCLC | ACHN renal
20.6 µM: U251 CNS
19.5 µM: OVCAR-4 ovarian

O=C1N=C(SC(SC2=NC(=O)C3(NN2)c2ccccc2-c2ccccc23)=C(SC2=NC(=O)C3(NN2)c2ccccc2-c2ccccc23)SC2=NC(=O)C3(NN2)c2ccccc2-c2ccccc23)NNC12c1ccccc1-c1ccccc12
2.95 µM: MOLT-4 leukemia
9.09 µM: ACHN renal
not listed: SK-MEL-2 melanoma | OVCAR-5 ovarian | HL-60(TB) leukemia | OVCAR-3 ovarian | U251 CNS | A498 renal
> 10 µM: all other assays above

COc1ccc([C@H]2CC(=O)C[C@H](c3ccc(OC)cc3)C23C(=O)c2ccccc2C3=O)cc1
16 µM: RXF 393 renal
42.2 µM: SR leukemia
8.32 µM: COLO 205 colon
17.5 µM: SK-MEL-2 melanoma
7.69 µM: NCI/ADR-RES ovarian
18.6 µM: NCI-H522 lung
5.95 µM: MDA-MB-435
53.3 µM: SF-539 CNS
5.35 µM: MDA-N
32.6 µM: HCC-2998 colon
87.8 µM: HS 578T breast
8.63 µM: SNB-75 CNS
7.74 µM: UACC-257 melanoma
17.4 µM: SK-MEL-5 melanoma
not listed: HL-60(TB) leukemia | OVCAR-3 ovarian
> 100 µM: all other assays above
